# Assay results published in the supplement of paper PMC10307832.
# Legend:
# Assay in all cases: relative viability (nuclei count vs DMSO), 5 days (fraction); higher = more cells survive
# Selumetinib + Alpelisib = compound: Cn1cnc2c(F)c(Nc3ccc(Br)cc3Cl)c(C(=O)NOCCO)cc21 [Selumetinib] + Cc1nc(NC(=O)N2CCC[C@H]2C(N)=O)sc1-c1ccnc(C(C)(C)C(F)(F)F)c1 [Alpelisib] (partner 2 µM)
# How it was run: (§1)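 Nuclei were stained with Hoechst during a one-step fixation (final 0.05% Triton X-100, 1% formaldehyde, 1 ug/ml Hoechst) carried out 5 days after dosing, then counted on 4× images. The cells, lung cancer lines in 1536-well plates, had been dosed by pin tool the day after seeding with one drug alone or a fixed anchor-drug dose plus five library-drug doses (not always all listed) in √10 steps. Relative viability is the nuclei count in treated wells divided by that in vehicle wells, and each value is the median of duplicate plates.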
# Venetoclax + Palbociclib = compound: CC1(C)CCC(CN2CCN(c3ccc(C(=O)NS(=O)(=O)c4ccc(NCC5CCOCC5)c([N+](=O)[O-])c4)c(Oc4cnc5[nH]ccc5c4)c3)CC2)=C(c2ccc(Cl)cc2)C1 [Venetoclax] + CC(=O)c1c(C)c2cnc(Nc3ccc(N4CCNCC4)cn3)nc2n(C2CCCC2)c1=O [Palbociclib] (partner 0.5 µM)
# How it was run: as §1
# Selumetinib + Decitabine = compound: Cn1cnc2c(F)c(Nc3ccc(Br)cc3Cl)c(C(=O)NOCCO)cc21 [Selumetinib] + Nc1ncn([C@H]2C[C@H](O)[C@@H](CO)O2)c(=O)n1 [Decitabine] (partner 2 µM)
# How it was run: as §1
# Venetoclax + Pemetrexed = compound: CC1(C)CCC(CN2CCN(c3ccc(C(=O)NS(=O)(=O)c4ccc(NCC5CCOCC5)c([N+](=O)[O-])c4)c(Oc4cnc5[nH]ccc5c4)c3)CC2)=C(c2ccc(Cl)cc2)C1 [Venetoclax] + Nc1nc2[nH]cc(CCc3ccc(C(=O)N[C@@H](CCC(=O)O)C(=O)O)cc3)c2c(=O)[nH]1 [Pemetrexed] (partner 0.2 µM)
# How it was run: as §1
Cell Line,relative viability (Selumetinib + Alpelisib; first compound 0.02 µM),relative viability (Selumetinib + Alpelisib; first compound 0.06325 µM),relative viability (Selumetinib + Alpelisib; first compound 0.2 µM),relative viability (Selumetinib + Alpelisib; first compound 0.6325 µM),relative viability (Venetoclax + Palbociclib; first compound 0.01 µM),relative viability (Venetoclax + Palbociclib; first compound 0.03162 µM),relative viability (Venetoclax + Palbociclib; first compound 0.1 µM),relative viability (Venetoclax + Palbociclib; first compound 0.3162 µM),relative viability (Venetoclax + Palbociclib; first compound 1 µM),relative viability (Selumetinib + Decitabine; first compound 0.02 µM),relative viability (Selumetinib + Decitabine; first compound 0.06325 µM),relative viability (Selumetinib + Decitabine; first compound 0.2 µM),relative viability (Selumetinib + Decitabine; first compound 0.6325 µM),relative viability (Venetoclax + Pemetrexed; first compound 0.01 µM),relative viability (Venetoclax + Pemetrexed; first compound 0.03162 µM),relative viability (Venetoclax + Pemetrexed; first compound 0.1 µM),relative viability (Venetoclax + Pemetrexed; first compound 0.3162 µM),relative viability (Venetoclax + Pemetrexed; first compound 1 µM)
201T,0.95,0.954,0.906,0.824,0.364,0.353,0.321,0.331,0.334,0.795,0.817,0.786,0.824,0.283,0.309,0.33,0.329,0.366
NCI-H2170,0.763,0.828,0.736,0.658,0.378,0.412,0.389,0.368,0.355,0.469,0.488,0.452,0.439,0.25,0.278,0.259,0.259,0.253
NCI-H838,0.847,0.81,0.807,0.704,0.236,0.212,0.217,0.208,0.2,0.446,0.421,0.45,0.448,0.246,0.261,0.264,0.234,0.24
HCC-366,0.361,0.273,0.196,0.158,0.391,0.359,0.314,0.37,0.326,0.353,0.36,0.315,0.309,0.16,0.16,0.172,0.186,0.197
NCI-H1651,0.779,0.899,0.975,0.828,0.529,0.537,0.536,0.545,0.528,0.626,0.531,0.644,0.701,0.628,0.674,0.561,0.529,0.57
LOU-NH91,0.648,0.6,0.577,0.586,0.504,0.546,0.505,0.516,0.519,0.782,0.777,0.723,0.751,0.362,0.365,0.392,0.327,0.337
NCI-H520,0.992,0.762,0.86,1,0.236,0.217,,0.204,0.201,0.551,0.493,0.523,0.606,0.781,0.73,,0.626,0.646
H3255,0.596,0.678,0.573,0.556,0.34,0.316,0.315,0.33,0.296,0.647,0.649,0.557,0.614,0.584,0.615,0.526,0.603,0.562
